# Test results taken from patent US11338026B2, “Identification of immunologically protective neo-epitopes for the treatment of cancers” (THE UNIVERSITY OF CONNECTICUT, priority 2014, dated 2022).
# pIC50: −log10 of the molar value. “Also recorded” adds a separate entry of the source. Where two headings read alike, the source gives them in different places. Peptide text beside a SMILES is read from it.
# Columns and labels:
# [1] = test system: CD8+ cells; test: Intracellular IFN-γ assay by FACS (ICS) on lymphocytes of immunized mice; assay type: in vivo, BALB/c mice; conditions: mice immunized with the WT counterpart of the named neo-epitope
# Protocol: Intracellular IFN-γ assay by FACS and ELISPOT. Lymphocytes were incubated either with or without 1-10 μg/ml peptide. GolgiPlug (BD Biosciences, San Jose, Calif.) was added 1 h later. After incubation of 12 to 16 h, cells were stained for CD44 (clone IM7), CD4 (clone GK1.5) and CD8 (clone 53-6.7) (BD Biosciences, San Jose, Calif.), fixed and permeabilized using the Cytofix/Cytoperm™ kit (BD Biosciences, San Jose, Calif.), and stained for intracellular IFN-γ using Phycoerythrin-conjugated anti-mouse IFN-γ (clone XMG1.2, BD Biosciences, San Jose, Calif.). Cells were stained with 1 μl antibody/million cells in 50 μl staining buffer (PBS with 1% bovine serum albumin) and incubated for 20 min at 4° C. in the dark, or according to the manufacturer's instructions. Cells without peptide stimulation were used as a negative control, and the values for these controls was very close to the values seen with the negative control peptide. Typically, 95,000-129,000 lymphocytes (14,500-17,000 CD8+CD4− cells) were acquired. The background is consistently very low (10% of the signal).
# (§1) All 18 peptides were used to immunize BALB/c mice. The draining lymph nodes (dLNs) of immunized mice were harvested one week after the single immunization, and the cells were stimulated in vitro for 16 h without any added peptide, the mutant peptide used for immunization, or the corresponding wild type peptide. The CD8+ cells were analyzed for activation (CD44+) and effector function (intracellular IFNγ+). (see Materials and Methods regarding the details of FACS analysis.) All possible patterns of immune-reactivity were observed (FIG. 3A): no immune response (12/18), a mutant peptide-specific, i.e. tumor-specific immune response (5/18), and a cross-reactive response between the mutant and corresponding wild type peptides (1/18).
# [2] = molecular target: T1, H-2 K^d (Mus musculus, UniProt P01902); test: Binding assays: inhibition of binding of a radiolabeled standard peptide to purified MHC molecules
# T1 sequence (P01902 22-368): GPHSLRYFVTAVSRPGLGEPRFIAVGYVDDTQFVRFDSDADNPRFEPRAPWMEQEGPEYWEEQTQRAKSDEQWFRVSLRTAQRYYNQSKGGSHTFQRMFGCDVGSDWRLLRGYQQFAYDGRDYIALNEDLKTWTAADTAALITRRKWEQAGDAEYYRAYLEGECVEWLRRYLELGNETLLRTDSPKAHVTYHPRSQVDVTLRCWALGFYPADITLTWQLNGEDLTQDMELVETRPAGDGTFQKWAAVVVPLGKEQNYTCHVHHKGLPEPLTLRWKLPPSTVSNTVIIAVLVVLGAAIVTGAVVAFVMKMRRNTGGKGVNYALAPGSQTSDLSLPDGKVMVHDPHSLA
# T1 sequence (P01887 21-119 partner): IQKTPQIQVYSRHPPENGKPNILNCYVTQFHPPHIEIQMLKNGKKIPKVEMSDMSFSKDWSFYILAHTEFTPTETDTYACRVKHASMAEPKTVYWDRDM
# Protocol: Binding assays. Binding of peptides to H-2 K^d was determined using quantitative assays based on the inhibition of binding of a radiolabeled standard peptide to purified MHC molecules essentially as described previously. […] Under the conditions utilized, where [label]<[MHC] and IC50≥[MHC], the measured IC50 values are reasonable approximations of the dissociation constant values.
# [3] = test system: CD8+ cells; test: IFNγ ELISPOT on CD8+ cells of immunized mice; assay type: in vivo, BALB/c mice; conditions: for ELISpot: mice immunized with mutant peptide; for CD8 T cell response of immunized mice: ELISPOT
# Protocol: For the ELISPOT assays, the negative controls were CD8+ cells from immunized mice without peptide stimulation. […] The magnitude of responses was rated by mean spot numbers per million CD8+ cells: 5-10 (+); 11-20 (++); 21-50 (+++); 51-100(++++) and >100(+++++).
# as §1
# [4] = mutant peptide, read-out: Measured IC50 for K^d (Mut/WT): Mut
# [5] = WT counterpart peptide, read-out: Measured IC50 for K^d (Mut/WT): WT
Structure (SMILES),pIC50 [2],ELISpot [3],also measured
CC(C)[C@H](NC(=O)[C@H](CO)NC(=O)[C@@H](NC(=O)[C@H](CCCCN)NC(=O)[C@H](C)NC(=O)[C@H](CCCCN)NC(=O)[C@H](CO)NC(=O)[C@@H](NC(=O)[C@H](Cc1ccccc1)NC(=O)[C@H](Cc1ccc(O)cc1)NC(=O)CN)C(C)C)[C@@H](C)O)C(=O)O (racemic) [Abr],,,immunogenicity of WT counterpart (functional effector T cells) [1]: elicited functional effector T cells in vivo
CC(C)C[C@H](NC(=O)CNC(=O)[C@H](CC(C)C)NC(=O)[C@H](CC(C)C)NC(=O)[C@H](CO)NC(=O)[C@H](CCCNC(=N)N)NC(=O)[C@H](CCCNC(=N)N)NC(=O)[C@H](CO)NC(=O)[C@H](CO)NC(=O)[C@H](Cc1c[nH]c2ccccc12)NC(=O)[C@@H](N)CO)C(=O)O [9430016H08Rik] (H-SWSSRRSLLGL-OH),,,"pIC50 ([2]; WT counterpart peptide, read-out: Measured IC50 for K^d (Mut/WT): WT, class symbol): < 4.15"
"CSCC[C@H](NC(=O)[C@@H]1CCCN1C(=O)[C@@H](NC(=O)[C@H](Cc1ccc(O)cc1)NC(=O)[C@@H](N)CC(=O)O)C(C)C)C(=O)N[C@@H](CCC(=O)O)C(=O)N[C@@H](CCC(N)=O)C(=O)N1CCC[C@H]1C(=O)O [Alkbh6.1, D(y/D)VPMEQP] (H-DYVPMEQP-OH)",< 4.15,,"pIC50 [2, 4]: 4.22"
CSCC[C@H](NC(=O)[C@@H]1CCCN1C(=O)[C@@H](NC(=O)[C@H](Cc1ccc(O)cc1)NC(=O)[C@@H](N)CC(=O)O)C(C)C)C(=O)N[C@@H](CCC(=O)O)C(=O)N[C@@H](CCC(N)=O)C(=O)N1CCC[C@H]1C(=O)N[C@@H](CCCNC(=N)N)C(=O)N1CCC[C@H]1C(=O)O [Alkbh6.3] (H-DYVPMEQPRP-OH; N-terminus and C-terminus assumed),,,"pIC50 [2, 5]: 4.63"
CC(C)C[C@H](NC(=O)[C@H](CCC(=O)O)NC(=O)[C@H](Cc1c[nH]c2ccccc12)NC(=O)[C@H](CS)NC(=O)[C@@H](NC(=O)[C@H](CCC(=O)O)NC(=O)[C@H](CS)NC(=O)[C@H](Cc1ccc(O)cc1)NC(=O)[C@H](C)N)[C@@H](C)O)C(=O)O [Apc] (H-AYCETCWEL-OH),,+++++ (>100 spots/106 CD8 = +++++),"pIC50 [2, 5]: 7.22"
"CSCC[C@H](NC(=O)[C@H](CC(C)C)NC(=O)CNC(=O)[C@@H]1CCCN1C(=O)[C@H](Cc1ccccc1)NC(=O)[C@@H](N)C(C)C)C(=O)N[C@@H](CCC(=O)O)C(=O)N[C@@H](CC(C)C)C(=O)O [Atxn10.2, VFPGLME(l/R)] (H-VFPGLMEL-OH; N-terminus and C-terminus assumed)",,,"CD8 T cell response of immunized mice ([3]; text): did not elicit a detectable response at all; CD8 T cell response of immunized mice ([3]; text, listed as Atxn 10.2): did not elicit a detectable CD8 response; pIC50 [2, 5]: 5.96"
CC(C)C[C@H](NC(=O)[C@H](CCC(=O)O)NC(=O)[C@H](CC(=O)O)NC(=O)[C@H](CCC(=O)O)NC(=O)[C@H](CC(C)C)NC(=O)[C@H](CC(C)C)NC(=O)CNC(=O)[C@H](CCC(N)=O)NC(=O)[C@H](CC(C)C)NC(=O)[C@@H](N)CCC(=O)O)C(=O)O [Ccdc136] (H-ELQGLLEDEL-OH; N-terminus and C-terminus assumed),,,"CD8 T cell response of immunized mice [3]: did not elicit a detectable response at all; also recorded: did not elicit a detectable CD8 response; pIC50 [2, 5]: 5.34"
"CC(C)C[C@H](N)C(=O)N[C@@H](Cc1ccc(O)cc1)C(=O)N[C@@H](CC(=O)O)C(=O)N[C@H](C(=O)N[C@@H](CC(=O)O)C(=O)N[C@@H](C)C(=O)N[C@@H](C)C(=O)N[C@@H](Cc1ccccc1)C(=O)O)C(C)C [Cpsf2, L(y/D)DVDAAF] (H-LYDVDAAF-OH)",< 4.15,+++ (21-50 spots/10^6 CD8 = +++),"pIC50 [2, 4]: 5.85"
CC[C@H](C)[C@H](NC(=O)[C@H](C)NC(=O)[C@H](Cc1ccc(O)cc1)NC(=O)[C@H](CCC(N)=O)NC(=O)[C@@H](NC(=O)[C@H](CC(C)C)NC(=O)[C@H](Cc1ccc(O)cc1)NC(=O)[C@@H]1CCCN1)[C@@H](C)O)C(=O)N[C@H](C(=O)N[C@@H](CCSC)C(=O)N[C@@H](CC(C)C)C(=O)O)[C@@H](C)CC [Dhx8.1] (H-PYLTQYAIIML-OH),5.78,+++++ (>100 spots/10^6 CD8 = +++++),"pIC50 [2, 4]: 5.66"
"CC[C@H](C)[C@H](NC(=O)[C@H](C)NC(=O)[C@H](Cc1ccc(O)cc1)NC(=O)[C@H](CCC(N)=O)NC(=O)[C@@H](NC(=O)[C@H](CC(C)C)NC(=O)[C@H](Cc1ccc(O)cc1)NC(=O)[C@@H]1CCCN1)[C@@H](C)O)C(=O)O [Dhx8.2, P(y/D)LTQYAI] (H-PYLTQYAI-OH; N-terminus and C-terminus assumed)",,+++++ (>100 spots/10^6 CD8 = +++++),
"CC[C@H](C)[C@H](NC(=O)[C@@H](NC(=O)[C@H](C)NC(=O)[C@H](Cc1ccc(O)cc1)NC(=O)[C@H](CCC(N)=O)NC(=O)[C@@H](NC(=O)[C@H](CC(C)C)NC(=O)[C@H](Cc1ccc(O)cc1)NC(=O)[C@@H]1CCCN1)[C@@H](C)O)[C@@H](C)CC)C(=O)O [Dhx8.3, P(y/D)LTQYAII] (H-PYLTQYAII-OH)",5.85,+++++ (>100 spots/10^6 CD8 = +++++),"pIC50 [2, 4]: 6.61"
CC[C@H](C)[C@H](NC(=O)[C@H](C)NC(=O)[C@H](Cc1ccc(O)cc1)NC(=O)[C@H](CCC(N)=O)NC(=O)[C@@H](NC(=O)[C@H](CC(C)C)NC(=O)[C@H](Cc1ccc(O)cc1)NC(=O)[C@@H]1CCCN1)[C@@H](C)O)C(=O)N[C@H](C(=O)N[C@@H](CCSC)C(=O)O)[C@@H](C)CC [Dhx8.4] (H-PYLTQYAIIM-OH),5.20,+++ (21-50 spots/10^6 CD8 = +++),"pIC50 [2, 4]: 5.18"
CC(C)C[C@H](NC(=O)[C@H](CCCNC(=N)N)NC(=O)[C@@H]1CCCN1C(=O)[C@H](CO)NC(=O)[C@H](CCCNC(=N)N)NC(=O)[C@H](Cc1ccc(O)cc1)NC(=O)[C@H](CCC(N)=O)NC(=O)[C@H](CCCNC(=N)N)NC(=O)[C@H](CCC(N)=O)NC(=O)[C@H](CC(C)C)NC(=O)[C@@H](N)CCCCN)C(=O)O [Mast2] (H-KLQRQYRSPRL-OH),5.07,,
CC[C@H](C)[C@H](NC(=O)[C@H](CS)NC(=O)CNC(=O)[C@H](Cc1c[nH]cn1)NC(=O)[C@H](Cc1ccccc1)NC(=O)CN)C(=O)N[C@@H](Cc1c[nH]cn1)C(=O)N[C@@H](CCC(=O)O)C(=O)N[C@H](C(=O)N[C@@H](CC(C)C)C(=O)O)C(C)C [Slit3] (H-GFHGCIHEVL-OH),,,"pIC50 ([2]; mutant neo-epitopes, read-out: measured IC50 / affinity for binding to K^d): ~4.30"
CC[C@H](C)[C@H](NC(=O)[C@H](CS)NC(=O)[C@H](CC(C)C)NC(=O)[C@H](C)NC(=O)[C@H](CCC(N)=O)NC(=O)[C@H](CC(C)C)NC(=O)[C@H](CCSC)NC(=O)[C@H](Cc1ccc(O)cc1)NC(=O)[C@@H](N)CO)C(=O)N1CCC[C@H]1C(=O)O [Tnpo3.3] (H-SYMLQALCIP-OH),6.95,,
"CSCC[C@H](NC(=O)[C@H](Cc1ccc(O)cc1)NC(=O)[C@@H](N)CO)C(=O)N[C@@H](CC(C)C)C(=O)N[C@@H](CCC(N)=O)C(=O)N[C@@H](C)C(=O)N[C@@H](CC(C)C)C(=O)N[C@@H](CS)C(=O)O [Tnpo3.4, (sy/LD)MLQALC] (H-SYMLQALC-OH)",7.05,,
"CC(C)C[C@H](NC(=O)[C@H](CC(=O)O)NC(=O)[C@H](CC(C)C)NC(=O)[C@H](Cc1ccc(O)cc1)NC(=O)[C@@H](N)CCC(=O)O)C(=O)N[C@@H](CCC(N)=O)C(=O)N[C@H](C(=O)N[C@@H](CCC(N)=O)C(=O)O)[C@@H](C)O [Zfp236.1, E(y/D)LDLQTQ] (H-EYLDLQTQ-OH)",< 4.15,,
"CC(C)C[C@H](NC(=O)[C@H](CC(=O)O)NC(=O)[C@H](CC(C)C)NC(=O)[C@H](Cc1ccc(O)cc1)NC(=O)[C@@H](N)CCC(=O)O)C(=O)N[C@@H](CCC(N)=O)C(=O)N[C@H](C(=O)N[C@@H](CCC(N)=O)C(=O)NCC(=O)O)[C@@H](C)O [Zfp236.2, E(y/D)LDLQTQG] (H-EYLDLQTQG-OH)",< 4.15,,
